Measurements published in patent US20040185558A1, “Method for culturing brain tissue in three dimensions” (priority 2003, published 2004).

System: hippocampal tissue grown under SMC
Assay: field EPSP evoked by electrical stimulation in hippocampal tissue cultured 10 days under simulated microgravity conditions
Type: cell-based, Sprauge-Dawley rats
From the text: In order to determine whether hippocampal tissue grown under SMC is able to generate electrical signals, hippocampal tissue grown under SMC for 10 days as described was electrically stimulated and field excitatory postsynaptic potential (EPSP) recorded. […] One important characteristic of the response is the presence of paired-pulse facilitation (PPF) (FIGS. 3A and 3B). PDF have been described and characterized in acute slices from the hippocampus and are an example of frequency-dependent short-term plasticity of excitatory synapses. This phenomenon is accounted for by the residual calcium hypothesis, according to which the small fraction of calcium entering the terminal during the first spike increases the probability of transmitter release to a second action potential (Zucker, 1989). […]
Sprauge-Dawley rats (7-9 days old) are quickly decapitated and the brain is rapidly removed and placed in ice-cold Gey's solution (g/L): NaCl (7), KCl (0.37), MgSO4-7H2O (0.06), MgCl2-6H2O (0.21), KH2PO4 (0.03), Na2HPO4-7H2O (0.23), Glucose (1), CaCl2-2H2O (0.23) and NaHCO3 ([…]). […] The slices will be monitored daily and rotary speed will be adjusted in order to avoid any free falling. […]

| SMILES | effect on field EPSP (NMDA subtype glutamate receptor antagonist) (100 μM APV, hippocampal tissue grown under SMC, vs no antagonist) | effect on field EPSP (dependence on voltage gated calcium current) (perfused with 1 mM CoCl2, hippocampal tissue grown under SMC 10 days, reversible after washout) |
| --- | --- | --- |
| NC(CCCP(=O)(O)O)C(=O)O (centres unmarked) [APV, amino-5-phosphonovaleric acid] | partially block |  |
| [Cl][Co][Cl] [CoCl2, cobalt chloride] |  | reversibly blocked |
